Test: Solubility of triazine UV absorbers in cyclohexane at room temperature
Type: physicochemical
Conditions: room temperature (20° C.)
Excerpt: UV stabilizers and co-additives. […] Solubility measurements of various orthohydroxyphenyl triazines in cyclohexane (substitute for polypropylene) conducted at room temperature indicate that such triazines having a solubility greater than 0.04 wt. % can be used in certain embodiments as the UV absorber of the stabilizer compositions described herein.

Row | SMILES | Solubility of triazines in Cyclohexane at room temperature
1 | CCCCCCCCOc1ccc(-c2nc(-c3ccc(OCCCCCCCC)cc3O)nc(-c3ccc(OCCCCCCCC)cc3O)n2)c(O)c1 [Formulation P-800, 2,4,6-tris(2-hydroxy-4-octyloxy-phenyl)-1,3,5-triazine] | >0.04% weight %
2 | CCCCCCCCOc1ccc(-c2nc(-c3ccc(C)cc3C)nc(-c3ccc(C)cc3C)n2)c(O)c1 [UV-1164, 2-[4,6-bis(2,4-dimethylphenyl)-1,3,5-triazin-2-yl]-5-(octyloxy) phenol] | 1.4 ± 0.2 weight %

Reference: US12215215B2, “Stabilizer compositions and methods for using same for protecting polymeric organic materials from UV light and thermal degradation” (Cytec Industries Inc., priority 2014, dated 2025)
